Source: PubChem BioAssay (NCI)
Where “and” joins values, the source holds several entries; their conditions need not be identical. Identical values can stand only once.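 Compound exposure: 48 hours, 5 concentrations, 96-well plates. GI50 is the concentration that inhibits growth by half. The concentration for full growth arrest is given as TGI.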 *1 amine or outer side, *2 acyl side, *3 side chain or, on linkers, in order; H or OH if unused. Where a SMILES comes first, the peptide text is derived from it. Bridges are numbered along the chain shown (N, C = ends). [ ]: non-standard residue; d: D form. ξ: configuration not given here. X4 = CCC(C)C(N[*:1])C(O)CC(=O)O[C@H](C(=O)C(C)C(=O)[*:2])C(C)C; NMeY = CN[C@@H](Cc1ccc(O)cc1)C(=O)O; X9 = O=C([C@@H]1CC(O)CN1[*:1])[*:2]; ξNMeL = CNC(CC(C)C)C(=O)O; ξT = CC(O)C(N)C(=O)O

Tests used:
Assay in all cases: DTP human tumour cell line panel, 48 h
[1] = tested on: HCC-2998 colon
[2] = tested on: HL-60(TB) leukemia
[3] = tested on: HS 578T breast
[4] = tested on: KM12 colon
[5] = tested on: MALME-3M melanoma
[6] = tested on: NCI-H23 lung
[7] = tested on: RPMI-8226 leukemia
[8] = tested on: SF-295 CNS
[9] = tested on: SNB-75 CNS
[10] = tested on: M14 melanoma

| SMILES | GI50 [1] [µM] | TGI [1] | GI50 [2] [µM] | TGI [2] [µM] | GI50 [3] [µM] | TGI [3] | GI50 [4] [µM] | TGI [4] [µM] | GI50 [5] [µM] | TGI [5] | GI50 [6] [µM] | TGI [6] [µM] | GI50 [7] [µM] | TGI [7] [µM] | GI50 [8] [µM] | TGI [8] | GI50 [9] [µM] | TGI [9] | GI50 [10] [µM] | TGI [10] |
| --- | --- | --- | --- | --- | --- | --- | --- | --- | --- | --- | --- | --- | --- | --- | --- | --- | --- | --- | --- | --- |
| C#Cc1cccc(NC(=O)Nc2ccc(NC(=O)CCl)cc2)c1 | 52.5 | > 82.5 µM | 14.9 | 33.4 | 17.8 | 81.7 µM | 18.9 | 63.8 | 12.1 | 23.9 µM | 15.4 | 36 | 10.8 | 28.5 | > 82.5 | > 82.5 µM | 8.39 | 19.1 µM | – | – |
| N#Cc1c(NC(=O)c2cccs2)[n+]([O-])c2ccccc2[n+]1[O-] | > 100 | > 100 µM | > 100 | > 100 | 95.9 | > 100 µM | > 100 | > 100 | 96.2 | > 100 µM | > 100 | > 100 | > 100 | > 100 | > 100 | > 100 µM | 49.5 | > 100 µM | > 100 | > 100 µM |
| O=C(CNC(=O)c1cccc2ccccc12)Nc1ccccc1Oc1cccc(O)c1 | > 25 | > 25 µM | 1.31 | 10.6 | 5.79 | > 25 µM | 2.18 | > 25 | 5.88 | > 25 µM | 16 | > 25 | 8.04 | > 25 | 2.2 | > 25 µM | 3.3 | > 25 µM | 1.56 | > 25 µM |
| Cc1c(C(=O)/C=C/c2ccc(O)cc2)nnn1-c1ccnc2c(C(F)(F)F)cccc12 | 20.9 | > 100 µM | 4.01 | 31.4 | 60.7 | > 100 µM | 8.92 | > 100 | 12.2 | 75.3 µM | 15.2 | > 100 | 2.84 | 21.1 | 25.8 | > 100 µM | 8.81 | 68.2 µM | 49.6 | > 100 µM |
| COc1ncnc2c(NC3OC(CO)C(O)C3O)ncnc12 (configuration not stated) | – | > 35 µM | – | 0.418 | – | 4.86 µM | – | > 65.1 | – | > 100 µM | – | 13.5 | – | 3.08 | – | 22.6 µM | – | 6.38 µM | – | 21.9 µM |
| COC(=O)Nc1ccc2ccc3c(NC(=O)OC)ccc4ccc1c2c43 (tested in a mixture with another compound) | 9.99 | 37.9 µM | 9.95 | > 50 | 9.01 | 40.4 µM | 3.4 | > 50 | 7.43 | > 50 µM | 11.5 | > 50 | 8.22 | > 50 | 5.25 | 30.2 µM | 12.6 | > 50 µM | 3.93 | > 50 µM |
| C[C@]12CC[C@H]3[C@@H](CC=C4C[C@@H](O)CC[C@@]43C)[C@@H]1C/C(=C\c1cccc(OCCN3CCOCC3)c1)[C@@H]2O | > 100 | > 100 µM | 21.5 | > 100 | > 100 | > 100 µM | > 100 | > 100 | 29.8 | 65.1 µM | 48.5 | > 100 | 7.83 | > 100 | 89.4 | > 100 µM | > 100 | > 100 µM | 24.3 | 69.2 µM |
| CCC(C)C1NC(=O)C(NC(=O)C(CC(C)C)N(C)C(=O)[C@@H]2CC(O)CN2)C(C)OC(=O)[C@H](Cc2ccc(OC)cc2)N(C)C(=O)[C@@H]2CCCN2C(=O)[C@H](CC(C)C)NC(=O)C(C)C(=O)[C@H](C(C)C)OC(=O)CC1O (some centres not stated) (H-[X9][ξNMeL][ξT][X4]LP[NMeY](Me); ester 3-C) | – | 0.101 µM and 0.133 µM | 0.035 | – | – | 0.0555 µM and 0.0238 µM | – | 0.105 | – | 0.0989 µM and 0.139 µM | – | – | 0.0103 | – | 0.0166 | 0.286 µM and 0.304 µM | – | 0.119 µM and 0.166 µM | – | 0.11 µM and 0.126 µM |
| COc1nccc(-c2c(-c3ccc(F)cc3)ncn2C2CCC(O)CC2)n1 (configuration not stated) | > 100 | > 100 µM | 56.7 | > 100 | > 100 | > 100 µM | > 85.6 | > 100 | > 100 | > 100 µM | > 100 | > 100 | > 70.3 | > 100 | > 100 | > 100 µM | > 100 | > 100 µM | > 100 | > 100 µM |
| S=C(Nc1ccccc1)c1ccccn1 | > 100 | > 100 µM | 31.3 | > 100 | > 100 | > 100 µM | > 100 | > 100 | > 100 | > 100 µM | 75 | > 100 | 41.7 | > 100 | 32.8 | > 100 µM | 54.5 | > 100 µM | 28 | 97.1 µM |
| Cc1cccc(C(C)O)n1 (configuration not stated) | – | > 100 µM | – | > 100 | – | > 100 µM | – | > 100 | – | > 100 µM | – | > 100 | – | – | – | > 100 µM | – | > 100 µM | – | > 100 µM |
| COc1ccc2c(c1)[nH]c(=O)c1c3cccnc3cn21 | 0.0744 | 17.7 µM | 0.0262 | 1.21 | 0.0384 | > 48.8 µM | 0.0377 | 17.5 | 0.0437 | 18.3 µM | 0.131 | 35.3 | 0.0596 | 32.4 | 0.0339 | 5.9 µM | 0.031 | 57.3 µM | 0.0265 | 19.9 µM |
| CCCCCCN1C(=O)/C(=c2\sc3n(c2=O)C2C(NN=3)N(CC)C(=O)N2CC)c2ccccc21 (configuration not stated) | 5.83 | > 50 µM | 1.96 | 43.9 | 1.12 | 3.28 µM | 1.46 | > 50 | – | – | 2.05 | > 50 | 2.57 | > 50 | 1.45 | > 50 µM | 0.762 | 2.31 µM | 3.24 | > 50 µM |
| CC1(C)OC2C(CO)OC(n3ccc(=O)[nH]c3=O)C2O1 (configuration not stated) | – | > 100 µM | – | > 100 | – | > 100 µM | – | – | – | – | – | > 100 | – | > 100 | – | > 100 µM | – | – | – | > 100 µM |
